# Results: patent publication US11064701B2, “Benzoxaborole compounds” (BASF SE, priority 2016, dated 2021)
# How the values were obtained:
# Assay in all cases: greenhouse post-emergence herbicidal test
# Format in all cases: in vivo
# Conditions in all cases: application rate 2 kg/ha, post-emergence method; scale 0 to 100 (100 = complete destruction)
# [1] = system: Amaranthus retroflexus
# Description: (§1) The seeds of the test plants were sown separately for each species. For the post-emergence treatment, the test plants were first grown to a height of 3 to 8 cm, depending on the plant habit, and only then treated with the active ingredients which had been suspended or emulsified in water. For this purpose, the test plants were either sown directly and grown in the same containers, or they were first grown separately as seedlings and transplanted into the test containers a few days prior to treatment. Depending on the species, the plants were kept at 10-25° C. or 20-35° C., respectively. The test period extended over 2 to 4 weeks. During this time, the plants were tended, and their response to the individual treatments was evaluated. Evaluation was carried out using a scale from 0 to 100. 100 means no emergence of the plants, or complete destruction of at least the aerial moieties, and 0 means no damage, or normal course of growth. A moderate herbicidal activity is given at values of at least 60, a good herbicidal activity is given at values of at least 70, and a very good herbicidal activity is given at values of at least 85. The plants used in the greenhouse experiments were of the following species: [table]
# [2] = system: Abutilon theophrasti
# Description: as §1
# [3] = system: Avena fatua
# Description: as §1
# [4] = system: Echinocloa crus-galli
# Description: as §1
# [5] = system: Setaria viridis
# Description: as §1
# [6] = system: Alopecurus myosuroides
# Description: as §1
structure (smiles),measurement,setting,value
O=C(O)COc1ccc2c(c1)B(O)OC2 [I-1],herbicidal activity against Amaranthus retroflexus,[1],100%
same,herbicidal activity against Abutilon theophrasti,[2],90%
same,herbicidal activity against Avena fatua,[3],90%
same,herbicidal activity against Echinocloa crus-galli,[4],100%
same,herbicidal activity against Setaria viridis,[5],100%
CCOC(=O)C(C)(C)Oc1ccc2c(c1)B(O)OC2 [I-2],herbicidal activity against Amaranthus retroflexus,[1],100%
COC(=O)COc1ccc2c(c1)B(O)OC2 [I-3],herbicidal activity against Amaranthus retroflexus,[1],100%
same,herbicidal activity against Abutilon theophrasti,[2],100%
same,herbicidal activity against Avena fatua,[3],90%
same,herbicidal activity against Echinocloa crus-galli,[4],98%
same,herbicidal activity against Setaria viridis,[5],100%
CC(C)(Oc1ccc2c(c1)B(O)OC2)C(=O)O [I-4],herbicidal activity against Abutilon theophrasti,[2],85%
same,herbicidal activity against Echinocloa crus-galli,[4],85%
COC(=O)COc1cc2c(cc1F)COB2O [I-5],herbicidal activity against Alopecurus myosuroides,[6],98%
same,herbicidal activity against Amaranthus retroflexus,[1],100%
same,herbicidal activity against Abutilon theophrasti,[2],100%
same,herbicidal activity against Avena fatua,[3],98%
same,herbicidal activity against Echinocloa crus-galli,[4],98%
same,herbicidal activity against Setaria viridis,[5],98%
O=C(O)COc1cc2c(cc1F)COB2O [I-6],herbicidal activity against Alopecurus myosuroides,[6],90%
same,herbicidal activity against Amaranthus retroflexus,[1],100%
same,herbicidal activity against Abutilon theophrasti,[2],100%
same,herbicidal activity against Avena fatua,[3],98%
same,herbicidal activity against Echinocloa crus-galli,[4],98%
same,herbicidal activity against Setaria viridis,[5],100%
COC(=O)COc1cc2c(cc1Cl)COB2O [I-7],herbicidal activity against Alopecurus myosuroides,[6],95%
same,herbicidal activity against Amaranthus retroflexus,[1],100%
same,herbicidal activity against Abutilon theophrasti,[2],100%
same,herbicidal activity against Avena fatua,[3],98%
same,herbicidal activity against Echinocloa crus-galli,[4],100%
same,herbicidal activity against Setaria viridis,[5],100%
O=C(O)COc1cc2c(cc1Cl)COB2O [I-8],herbicidal activity against Alopecurus myosuroides,[6],98%
same,herbicidal activity against Amaranthus retroflexus,[1],100%
same,herbicidal activity against Abutilon theophrasti,[2],100%
same,herbicidal activity against Avena fatua,[3],98%
same,herbicidal activity against Echinocloa crus-galli,[4],100%
same,herbicidal activity against Setaria viridis,[5],95%
COC(=O)C(Oc1cc2c(cc1F)COB2O)C(=O)OC [I-10],herbicidal activity against Amaranthus retroflexus,[1],90%
same,herbicidal activity against Setaria viridis,[5],95%
O=C(O)COc1c(Cl)cc2c(c1Cl)B(O)OC2 [I-15],herbicidal activity against Amaranthus retroflexus,[1],100%
same,herbicidal activity against Echinocloa crus-galli,[4],85%
same,herbicidal activity against Setaria viridis,[5],90%
O=C(O)CSc1cc2c(cc1F)COB2O [I-22],herbicidal activity against Amaranthus retroflexus,[1],100%
same,herbicidal activity against Abutilon theophrasti,[2],100%
same,herbicidal activity against Setaria viridis,[5],100%
O=C(O)COc1c(F)cc2c(c1F)B(O)OC2 [I-24],herbicidal activity against Amaranthus retroflexus,[1],100%
same,herbicidal activity against Abutilon theophrasti,[2],100%
same,herbicidal activity against Setaria viridis,[5],95%
O=C(O)CCCOc1cc2c(cc1F)COB2O [I-25],herbicidal activity against Amaranthus retroflexus,[1],95%
same,herbicidal activity against Setaria viridis,[5],95%
CCOC(=O)C(F)Oc1ccc2c(c1)B(O)OC2 (stereo not shown) [I-26],herbicidal activity against Amaranthus retroflexus,[1],100%
same,herbicidal activity against Abutilon theophrasti,[2],90%
same,herbicidal activity against Setaria viridis,[5],85%
COC(=O)CSc1cc2c(cc1F)COB2O [I-28],herbicidal activity against Amaranthus retroflexus,[1],100%
same,herbicidal activity against Abutilon theophrasti,[2],100%
same,herbicidal activity against Setaria viridis,[5],100%
COC(=O)COc1c(F)cc2c(c1F)B(O)OC2 [I-29],herbicidal activity against Amaranthus retroflexus,[1],100%
same,herbicidal activity against Echinocloa crus-galli,[4],95%
same,herbicidal activity against Setaria viridis,[5],100%
CC(Oc1c(F)cc2c(c1F)B(O)OC2)C(=O)O (stereo not shown) [I-30],herbicidal activity against Alopecurus myosuroides,[6],85%
same,herbicidal activity against Amaranthus retroflexus,[1],100%
same,herbicidal activity against Abutilon theophrasti,[2],95%
O=C(O)COc1c(F)c(F)c2c(c1F)B(O)OC2 [I-33],herbicidal activity against Amaranthus retroflexus,[1],100%
same,herbicidal activity against Abutilon theophrasti,[2],98%
same,herbicidal activity against Setaria viridis,[5],98%
COC(=O)C(C)Oc1c(F)cc2c(c1F)B(O)OC2 (stereo not shown) [I-35],herbicidal activity against Amaranthus retroflexus,[1],100%
same,herbicidal activity against Abutilon theophrasti,[2],100%
same,herbicidal activity against Setaria viridis,[5],98%
O=C(O)CS(=O)(=O)c1cc2c(cc1F)COB2O [I-37],herbicidal activity against Amaranthus retroflexus,[1],100%
COC(=O)COc1c(F)c(F)c2c(c1F)B(O)OC2 [I-39],herbicidal activity against Amaranthus retroflexus,[1],100%
same,herbicidal activity against Setaria viridis,[5],100%
COC(=O)CS(=O)(=O)c1cc2c(cc1F)COB2O [I-42],herbicidal activity against Amaranthus retroflexus,[1],100%
same,herbicidal activity against Abutilon theophrasti,[2],100%
